Experiment [1] addresses T1, NPC1L1 (rNPC1L1) (Rattus norvegicus, UniProt Q6T3U3).
T1 construct: rat NPC1L1 (GenBank AY437867), membranes from stably expressing HEK293 cells
Briefly: competitive radioligand binding, [3H]ezetimibe glucuronide, HEK293/rNPC1L1 membranes.

The target in experiment [2] is T1, NPC1L1 (rNPC1L1). As to the kind of experiment: competitive radioligand binding, [3H]ezetimibe glucuronide, HEK293/rNPC1L1 membranes (two-site fit; low-affinity site […]).

Consider two compounds from article PMC4281142, “Fomiroid A, a Novel Compound from the Mushroom Fomitopsis nigra, Inhibits NPC1L1-Mediated Cholesterol Uptake via a Mode of Action Distinct from That of Ezetimibe” (PLoS ONE, 2014).

The IC50 is the concentration needed to halve the response being measured. The low end stands for higher potency, the high end for lower potency.

SMILES strings stand for the structures.

Take `O=C1[C@H](CC[C@H](O)c2ccc(F)cc2)[C@@H](c2ccc(O)cc2)N1c1ccc(F)cc1` [ezetimibe]: the IC50 at NPC1L1 (rNPC1L1) [1] was 332 ± 4.2 nM.

On to `CC(C)=CCCC(CO)C1CC(O)C2(C)C3=C(CCC12C)C1(C)CCC(=O)C(C)(C)C1CC3` (centres unmarked) [fomiroid A, 15, 21-dihydroxylanosta-8, 24-dien-3-one], for which, on NPC1L1 (rNPC1L1) [2], the IC50 stood at 4.83 ± 0.2 µM.
